In patent US8124121B2, “Flavors, flavor modifiers, tastants, taste enhancers, umami or sweet tastants, and/or enhancers and use thereof” (Senomyx, Inc., priority 2003, dated 2012):

Columns and labels:
HEK293-Gα15 cells = assay: FLIPR assay on HEK293-Gα15 cells not expressing the human sweet receptor (receptor dependency control); assay type: cell-based
From the text: In order to determine the dependency of hT1R2/hT1R3 for the cell response to different stimuli, selected compounds were subjected to a similar analysis on HEK293-Gα15 cells (not expressing the human sweet receptor).

[1] = system: savory taste, human panelists; assay: Umami/savory flavor experiments using human panelists (trained panel, difference from reference); assay type: in vivo; settings: 12 mM MSG + cpd vs reference 12 mM MSG + 100 μM IMP
Protocol: General Panelist Selection: Basic screening of sensory taste testers: Potential panelists were tested for their abilities to rank and rate intensities of solutions representing the five basic tastes. Panelists ranked and rated intensity of five different concentrations of each of the five following compounds: sucrose (sweet), sodium chloride (salty), citric acid (sour), caffeine (bitter), and monosodium glutamate (savory). In order to be selected for participation in testing, panelists needed to correctly rank and rate samples for intensity, with a reasonable number of errors
Preliminary Taste Tests: The panelists selected in the above procedure were deemed qualified for performing Preliminary Taste Testing procedures. The preliminary taste tests are used to evaluate new compounds for intensity of basic tastes and off-tastes. A small group of panelists (n=5) taste approximately 5 concentrations of the compound (range typically between 1-100 μM, in half-log cycles, e.g., 1, 3, 10, 30, and 100 μM) in water and in a solution of 12 mM MSG to evaluate enhancement. Panelists rate the five basic tastes (sweet, salty, sour, bitter, and savory) as well as off-tastes (such as chemical, metallic, sulfur) on a labeled magnitude scale. Samples are served in 10 mL portions at room temperature. The purpose of the test is to determine the highest concentration at which there is no objectionable off-taste, and determine if obvious savory taste or enhancement of savory taste exists at any of the concentrations tested.
Trained Panelist Selection: A trained expert panel was used to further evaluate compounds that had been tested with the preliminary taste test.
Panelists for the trained panel were selected from the larger group of qualifying taste panelists. Panelists were further trained on savory taste by ranking and rating experiments using MSG and IMP combinations. Panelists completed a series of ranking, rating, and difference from reference tests with savory solutions. In ranking and rating experiments, panelists evaluated easy MSG concentrations (0, 6, 18, 36 mM) and more difficult MSG concentrations (3, 6, 12, 18 mM MSG) in water.
Compound testing with Trained Panel: Compounds tested by the trained panel were evaluated in difference from reference experiments. […] Test samples were solutions with varying amounts of MSG, IMP, and the compound.
Compounds were tested against the reference in samples with and without 12 mM MSG. All samples were presented in 10 ml volumes at room temperature. Two sessions were completed for each compound tested to evaluate panel reproducibility.

un-induced I-17 cells = assay: FLIPR assay on un-induced I-17 cells (receptor dependency control); assay type: cell-based; settings: I-17 cells not induced with mifepristone; compounds presented at 10 μM
Protocol: In order to determine the dependency of hT1R1/hT1R3 for the cell response to different stimuli, selected compounds were subjected to a similar analysis on I-17 cells that had not been induced for receptor expression with mifepristone (designated as un-induced I-17 cells). […] Compounds were presented to un-induced umami cells at […]—or three times the maximum stimulation used in the dose-response analysis.

O=C(CO)[C@@H](O)[C@H](O)[C@H](O)CO [D-Fructose]
functional response in the FLIPR assay using HEK293-Gα15 cells (HEK293-Gα15 cells): do not show any functional response

COc1cc(C)ccc1CNC(=O)C(=O)NCCc1ccc(C)cn1 [Example 157, N^1-(2-methoxy-4-methylbenzyl)-N^2-(2-(5-methylpyridin-2-yl)ethyl)oxalamide]
Taste Data: concentration of cpd with 12 mM MSG that is as strong as 12 mM MSG + 100 μM IMP [1]: 12 mM MSG + 0.3 μM cpd as strong as
melting point: 116 to 117 °C

N[C@@H](CCC(=O)O)C(=O)[O-].[Na+] [monosodium glutamate]
functional response in the FLIPR assay using un-induced umami cells (un-induced I-17 cells): do not show any functional response
